Results from patent US4716171A (Etablissements Nativelle S.A., priority 1981, dated 1987).
Read-outs that look alike come from different tables or passages of the source.

Columns and labels:
[1] = set-up: species or system dogs; conditions: dog, in vivo, iv
Procedure: The parameters were recorded by means of: catheters connected to pressure sensors (arterial pressure, left ventricular pressure and its first dp/dt derivative); electromagnetic flowmeter on the aorta (aortic flow); electrocardiograph; strain gauge placed on the left ventricular myocardium (myocardiac contraction force).

[2] = Electrophysiological study in anesthetized dog (closed thorax, bipolar catheter-electrodes); assay type: in vivo
Procedure: The study was carried out on a dog anesthetized with pentobarbital, with a closed thorax, by means of bipolar catheter-electrodes introduced into the cardiac cavities by transcutaneous venous and arterial tracts.
In this manner and by means of a programmable stimulator, sinusal automaticity, intracardiac conduction times, and the effective and functional cardiac refractory periods can be measured.

[3] = system: anoxic ventricular fibrillation; assay: Lawson test (antifibrillatory power); assay type: in vivo, mice
From the text: (§1) Antiarrhythmic activity in mice was observed by means of the Lawson test, using the method described by J. W. Lawson, J. Pharmacol. Exp. Therp., 160, 22-31 (1968) and Cr. Narcisse et al. Ann. Pharma. Fr., 37, 325-330 (1979), in rats by the test with aconitine of S. Witchitz et al. Coeur Med. Int., X(2), 281-286 (1971), and in dogs by the Harris test described in Circulation, 1, 1318 (1950). 3S-hydroxy-10,11-dihydroquinidine was used for each of these three tests.
The Lawson test enables the study of the cardiac antifibrillatory power of the derivatives of the present invention. […] The efficacity dose 50 (ED50) indicated in Table 4 is the dose which protects half of the mice against anoxic ventricular fibrillation.

arrhythmia = assay: Test with aconitine (arrhythmia appearance time); assay type: in vivo, rats; conditions: for Appearance Time, ESV (ventricular extrasystoles): control 98; for Appearance Time, TV (ventricular tachycardium): control 112; for Appearance Time, FV (ventricular fibrillation): control 228; for Appearance Time, ESV (ventricular extrasystoles), %: vs control 98; for Appearance Time, TV (ventricular tachycardium), %: vs control 112
From the text: as §1

ventricular arrhythmia = assay: Harris test; assay type: in vivo, dogs; conditions: for % Protection / % Protection, Average: dogs, I.V.; for % Protection, Average: average of Exp. 1 and 2
From the text: as §1

[4] = LD50 in mice (Lichfield and Wilcoxon method); conditions: mouse, in vivo
From the text: (§2) For example, the results obtained with 3S-hydroxy-10,11-dihydroquinidine in the form of the hydrochloride salt are shown in Table 1 below.

[5] = LD50 in rats (Lichfield and Wilcoxon method); conditions: rat, in vivo, male, oral
From the text: as §2

CC[C@@]1(O)CN2CC[C@H]1C[C@@H]2[C@@H](O)c1ccnc2ccc(OC)cc12 [3S-hydroxy-10,11-dihydroquinidine, 3S-Hydroxy-10,11-dihydroquinidine]
cardiac flow (in words) [1]: no significant change before a cumulative dose of 20 mg/kg is reached | cardiac frequency (in words) [1]: not significantly modified before a cumulative dose of 20 mg/kg is reached | myocardiac contraction force (in words) [1]: no change | systolic arterial pressure (in words) [1]: diminishes progressively with the dose, the effects only becoming considerable for a cumulative dose greater than 10 mg/kg | Cardiac Flow, variation in relation to initial value ([1]; 0.5 mg/kg): -50 ± 50 mL/min | Cardiac Frequency, variation in relation to initial value ([1]; 0.5 mg/kg): -2 ± 6 beats/min. | Force of Contractions of the Myocardium, variation in relation to initial value ([1]; 0.5 mg/kg): -3 ± 3 g | Systolic Arterial Pressure, variation in relation to initial value ([1]; 0.5 mg/kg): -11 ± 4 mmHg | Total Peripheral Resistance, variation in relation to initial value ([1]; 0.5 mg/kg): -382 ± 180 | Cardiac Flow, variation in relation to initial value ([1]; 4 mg/kg): -90 ± 143 mL/min | Cardiac Frequency, variation in relation to initial value ([1]; 4 mg/kg): -5 ± 2 beats/min. | Force of Contractions of the Myocardium, variation in relation to initial value ([1]; 4 mg/kg): 0 ± 1 g | Systolic Arterial Pressure, variation in relation to initial value ([1]; 4 mg/kg): -20 ± 5 mmHg | Total Peripheral Resistance, variation in relation to initial value ([1]; 4 mg/kg): -457 ± 277 | Cardiac Flow, variation in relation to initial value ([1]; 5 mg/kg): -316 ± 412 mL/min | Cardiac Frequency, variation in relation to initial value ([1]; 5 mg/kg): -3 ± 16 beats/min. | Force of Contractions of the Myocardium, variation in relation to initial value ([1]; 5 mg/kg): 2 ± 1 g | Systolic Arterial Pressure, variation in relation to initial value ([1]; 5 mg/kg): -23 ± 7 mmHg | Total Peripheral Resistance, variation in relation to initial value ([1]; 5 mg/kg): -376 ± 227 | Cardiac Flow, variation in relation to initial value ([1]; 10 mg/kg): -775 ± 498 mL/min | Cardiac Frequency, variation in relation to initial value ([1]; 10 mg/kg): -15 ± 13 beats/min. | Force of Contractions of the Myocardium, variation in relation to initial value ([1]; 10 mg/kg): 8 ± 1 g | Systolic Arterial Pressure, variation in relation to initial value ([1]; 10 mg/kg): -36 ± 13 mmHg | Total Peripheral Resistance, variation in relation to initial value ([1]; 10 mg/kg): -91 | Cardiac Cycle, percentage of variation ([2]; 1 mg/kg): +4.5% | HV (HissPurkinje conduction), percentage of variation ([2]; 1 mg/kg): +10.8% | PREA (Effective auricular refractory period), percentage of variation ([2]; 1 mg/kg): +8% | PREV (Effective ventricular refractory period), percentage of variation ([2]; 1 mg/kg): -1.5% | PRFN (Functional nodal refractory period), percentage of variation ([2]; 1 mg/kg): 0% | QRS (Intraventricular conduction), percentage of variation ([2]; 1 mg/kg): +14.4% | QTc (Corrected repolarization time), percentage of variation ([2]; 1 mg/kg): +2.8% | SH (AuriculoHissian conduction), percentage of variation ([2]; 1 mg/kg): +1.7% | Cardiac Cycle, percentage of variation ([2]; 5 mg/kg): +5.1% | HV (HissPurkinje conduction), percentage of variation ([2]; 5 mg/kg): +20.9% | PREA (Effective auricular refractory period), percentage of variation ([2]; 5 mg/kg): +16% | PREV (Effective ventricular refractory period), percentage of variation ([2]; 5 mg/kg): +2.8% | PRFN (Functional nodal refractory period), percentage of variation ([2]; 5 mg/kg): +5.5% | QRS (Intraventricular conduction), percentage of variation ([2]; 5 mg/kg): +14.4% | QTc (Corrected repolarization time), percentage of variation ([2]; 5 mg/kg): +7% | SH (AuriculoHissian conduction), percentage of variation ([2]; 5 mg/kg): +3.8% | Cardiac Cycle, percentage of variation ([2]; 10 mg/kg): +14. % | HV (HissPurkinje conduction), percentage of variation ([2]; 10 mg/kg): +32.8% | PREA (Effective auricular refractory period), percentage of variation ([2]; 10 mg/kg): +23.7% | PREV (Effective ventricular refractory period), percentage of variation ([2]; 10 mg/kg): +6.5% | PRFN (Functional nodal refractory period), percentage of variation ([2]; 10 mg/kg): +12.6% | QRS (Intraventricular conduction), percentage of variation ([2]; 10 mg/kg): +22% | QTc (Corrected repolarization time), percentage of variation ([2]; 10 mg/kg): +6% | SH (AuriculoHissian conduction), percentage of variation ([2]; 10 mg/kg): +15% | cardiac frequency (in words) ([2]; compared with quinidine): slows cardiac frequency like quinidine | cardiac refractory periods, level of the auricles (in words) ([2]; compared with quinidine): greater than those of quinidine | cardiac refractory periods, ventricular and nodal stage (in words) ([2]; compared with quinidine): effects equivalent to those of quinidine | conduction in the His-Purkinje system (in words) ([2]; compared with quinidine): effects greater than those of quinidine | conduction between the auricles and the trunk of the His fasciculus (in words) ([2]; dog, in vivo): slightly changes conduction | ED50 ([3]; Mus musculus, ip, mice, I.P., read-out: ED 50 (dose which protects half of the mice against anoxic ventricular fibrillation)): 72.5 mg/kg | antifibrillatory efficacity (in words) ([3]; compared with quinidine): comparable to that of quinidine | protective effect against arrhythmia (in words) (arrhythmia; compared with quinidine): greater than that of quinidine | activity in the test with aconitine (in words) (arrhythmia; compared with quinidine, quantitative level): considerably more active than quinidine | Appearance Time, ESV (ventricular extrasystoles) (arrhythmia; rats, I.V., 10 mg/kg): 208 min | Appearance Time, TV (ventricular tachycardium) (arrhythmia; rats, I.V., 10 mg/kg): 253 min | Appearance Time, FV (ventricular fibrillation) (arrhythmia; rats, I.V., 10 mg/kg): 504 min | Appearance Time, ESV (ventricular extrasystoles), % (arrhythmia; rats, I.V., 10 mg/kg): +112% | Appearance Time, TV (ventricular tachycardium), % (arrhythmia; rats, I.V., 10 mg/kg): +125% | Appearance Time, FV (ventricular fibrillation), % (arrhythmia; rats, I.V., 10 mg/kg, vs control 228): +121% | decrease in ventricular arrhythmia (in words) (ventricular arrhythmia; 6 mg/kg, compared with quinidine): greater with the compound of the present invention than with quinidine | % Protection (ventricular arrhythmia; 6 mg/kg, 1 h, Exp. 1): 65% | % Protection (ventricular arrhythmia; 6 mg/kg, 1 h, Exp. 2): 39% | % Protection, Average (ventricular arrhythmia; 6 mg/kg, 1 h): 52% | % Protection (ventricular arrhythmia; +10 mg/kg, 1 h, Exp. 1): 72% | % Protection (ventricular arrhythmia; +10 mg/kg, 1 h, Exp. 2): 42% | % Protection, Average (ventricular arrhythmia; +10 mg/kg, 1 h): 57% | % Protection (ventricular arrhythmia; +10 mg/kg, 2 h, Exp. 1): 97% | % Protection (ventricular arrhythmia; +10 mg/kg, 2 h, Exp. 2): 41% | % Protection, Average (ventricular arrhythmia; +10 mg/kg, 2 h): 69% | efficacity (in words) (ventricular arrhythmia; higher doses, compared with quinidine): comparable for higher doses

C=C[C@H]1C[N@@]2CC[C@H]1C[C@@H]2[C@@H](O)c1ccnc2ccc(OC)cc12 [Quinidine, quinidine, reference compound]
LD50 ([4]; ip, mice (male and female), intraperitoneal, comparison, read-out: LD50 (average values)): 225 to 235 mg/kg | Cardiac Cycle, percentage of variation ([2]; 1 mg/kg): +2.7% | HV (HissPurkinje conduction), percentage of variation ([2]; 1 mg/kg): 0% | PREA (Effective auricular refractory period), percentage of variation ([2]; 1 mg/kg): +2% | PREV (Effective ventricular refractory period), percentage of variation ([2]; 1 mg/kg): +3.3% | PRFN (Functional nodal refractory period), percentage of variation ([2]; 1 mg/kg): +3% | QRS (Intraventricular conduction), percentage of variation ([2]; 1 mg/kg): 0% | QTc (Corrected repolarization time), percentage of variation ([2]; 1 mg/kg): +1.8% | SH (AuriculoHissian conduction), percentage of variation ([2]; 1 mg/kg): +3.5% | Cardiac Cycle, percentage of variation ([2]; 5 mg/kg): +5.1% | HV (HissPurkinje conduction), percentage of variation ([2]; 5 mg/kg): +8.7% | PREA (Effective auricular refractory period), percentage of variation ([2]; 5 mg/kg): +3.5% | PREV (Effective ventricular refractory period), percentage of variation ([2]; 5 mg/kg): +6.5% | PRFN (Functional nodal refractory period), percentage of variation ([2]; 5 mg/kg): +5% | QRS (Intraventricular conduction), percentage of variation ([2]; 5 mg/kg): 0% | QTc (Corrected repolarization time), percentage of variation ([2]; 5 mg/kg): 0% | SH (AuriculoHissian conduction), percentage of variation ([2]; 5 mg/kg): +7.2% | Cardiac Cycle, percentage of variation ([2]; 10 mg/kg): +9.2% | HV (HissPurkinje conduction), percentage of variation ([2]; 10 mg/kg): +17.7% | PREA (Effective auricular refractory period), percentage of variation ([2]; 10 mg/kg): +14.4% | PREV (Effective ventricular refractory period), percentage of variation ([2]; 10 mg/kg): +8.5% | PRFN (Functional nodal refractory period), percentage of variation ([2]; 10 mg/kg): +9% | QRS (Intraventricular conduction), percentage of variation ([2]; 10 mg/kg): 0% | QTc (Corrected repolarization time), percentage of variation ([2]; 10 mg/kg): +1.5% | SH (AuriculoHissian conduction), percentage of variation ([2]; 10 mg/kg): +10.5% | Appearance Time, ESV (ventricular extrasystoles) (arrhythmia; rats, I.V., 10 mg/kg): 150 min | Appearance Time, TV (ventricular tachycardium) (arrhythmia; rats, I.V., 10 mg/kg): 171 min | Appearance Time, FV (ventricular fibrillation) (arrhythmia; rats, I.V., 10 mg/kg): 474 min | Appearance Time, ESV (ventricular extrasystoles), % (arrhythmia; rats, I.V., 10 mg/kg): +53% | Appearance Time, TV (ventricular tachycardium), % (arrhythmia; rats, I.V., 10 mg/kg): +52% | % Protection (ventricular arrhythmia; quinidine, 6 mg/kg, 1 h): 21% | % Protection (ventricular arrhythmia; quinidine, +5 mg, 1 h): 55% | % Protection (ventricular arrhythmia; quinidine, +5 mg, 2 h): 52%

CC[C@@]1(O)CN2CC[C@H]1C[C@@H]2[C@@H](O)c1ccnc2ccc(OC)cc12 [3S-hydroxy-10,11-dihydroquinidine]
LD50 ([4]; ip, mice, female, IP, read-out: LD50): 180 mg/kg | LD50 ([4]; ip, mice, male, IP, read-out: LD50): 280 mg/kg | LD50 ([4]; iv, mice, female, IV, read-out: LD50): 105 mg/kg | LD50 ([4]; iv, mice, male, IV, read-out: LD50): 120 mg/kg | LD50 ([4]; po, mice, female, oral, read-out: LD50): 900 mg/kg | LD50 ([4]; po, mice, male, oral, read-out: LD50): 975 mg/kg | LD50 [5]: 640 mg/kg
